Measurements reported in patent US20260265238A1, “COMPOUNDS AND PHARMACEUTICAL COMPOSITIONS THAT DEGRADE SWI/SNF-RELATED MATRIX-ASSOCIATED ACTIN-DEPENDENT REGULATOR OF CHROMATIN SUBFAMILY A” (Plexium, Inc., priority 2023, published 2026).

Tests used:
[1] = biological target: T1, SMARCA4-HiBiT HeLa cells (protein which is expressed from the SMARCA4 gene) (Homo sapiens, UniProt P51532); assay: SMARCA4 degradation assay (HiBiT-fusion HeLa cell line, 24 h, luminescence); format: cell-based
T1 construct: protein which is expressed from the SMARCA2 and SMARCA4 genes; host or cells: HeLa (SMARCA4-HiBiT engineered line)
Method in brief: (§1)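 HiBiT-fusion HeLa lines, 8,000 cells/well, overnight attachment; cpd 10-pt series (typically 10 μM–300 pM), 24 h, 37° C. Lysis with LgBiT + HiBiT substrate, 10 min shaking at RT, luminescence read. DC50 from dose-response fit; % degradation also scored at 1 μM.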

[2] = biological target: T2, SMARCA2-HiBiT HeLa cells (protein which is expressed from the SMARCA2 gene) (Homo sapiens, UniProt P51531); assay: SMARCA2 degradation assay (HiBiT-fusion HeLa cell line, 24 h, luminescence); format: cell-based
T2 construct: protein which is expressed from the SMARCA2 and SMARCA4 genes; host or cells: HeLa (SMARCA2-HiBiT engineered line)
Method in brief: as §1

T1 sequence (P51532 whole entry, the tested form may be a part): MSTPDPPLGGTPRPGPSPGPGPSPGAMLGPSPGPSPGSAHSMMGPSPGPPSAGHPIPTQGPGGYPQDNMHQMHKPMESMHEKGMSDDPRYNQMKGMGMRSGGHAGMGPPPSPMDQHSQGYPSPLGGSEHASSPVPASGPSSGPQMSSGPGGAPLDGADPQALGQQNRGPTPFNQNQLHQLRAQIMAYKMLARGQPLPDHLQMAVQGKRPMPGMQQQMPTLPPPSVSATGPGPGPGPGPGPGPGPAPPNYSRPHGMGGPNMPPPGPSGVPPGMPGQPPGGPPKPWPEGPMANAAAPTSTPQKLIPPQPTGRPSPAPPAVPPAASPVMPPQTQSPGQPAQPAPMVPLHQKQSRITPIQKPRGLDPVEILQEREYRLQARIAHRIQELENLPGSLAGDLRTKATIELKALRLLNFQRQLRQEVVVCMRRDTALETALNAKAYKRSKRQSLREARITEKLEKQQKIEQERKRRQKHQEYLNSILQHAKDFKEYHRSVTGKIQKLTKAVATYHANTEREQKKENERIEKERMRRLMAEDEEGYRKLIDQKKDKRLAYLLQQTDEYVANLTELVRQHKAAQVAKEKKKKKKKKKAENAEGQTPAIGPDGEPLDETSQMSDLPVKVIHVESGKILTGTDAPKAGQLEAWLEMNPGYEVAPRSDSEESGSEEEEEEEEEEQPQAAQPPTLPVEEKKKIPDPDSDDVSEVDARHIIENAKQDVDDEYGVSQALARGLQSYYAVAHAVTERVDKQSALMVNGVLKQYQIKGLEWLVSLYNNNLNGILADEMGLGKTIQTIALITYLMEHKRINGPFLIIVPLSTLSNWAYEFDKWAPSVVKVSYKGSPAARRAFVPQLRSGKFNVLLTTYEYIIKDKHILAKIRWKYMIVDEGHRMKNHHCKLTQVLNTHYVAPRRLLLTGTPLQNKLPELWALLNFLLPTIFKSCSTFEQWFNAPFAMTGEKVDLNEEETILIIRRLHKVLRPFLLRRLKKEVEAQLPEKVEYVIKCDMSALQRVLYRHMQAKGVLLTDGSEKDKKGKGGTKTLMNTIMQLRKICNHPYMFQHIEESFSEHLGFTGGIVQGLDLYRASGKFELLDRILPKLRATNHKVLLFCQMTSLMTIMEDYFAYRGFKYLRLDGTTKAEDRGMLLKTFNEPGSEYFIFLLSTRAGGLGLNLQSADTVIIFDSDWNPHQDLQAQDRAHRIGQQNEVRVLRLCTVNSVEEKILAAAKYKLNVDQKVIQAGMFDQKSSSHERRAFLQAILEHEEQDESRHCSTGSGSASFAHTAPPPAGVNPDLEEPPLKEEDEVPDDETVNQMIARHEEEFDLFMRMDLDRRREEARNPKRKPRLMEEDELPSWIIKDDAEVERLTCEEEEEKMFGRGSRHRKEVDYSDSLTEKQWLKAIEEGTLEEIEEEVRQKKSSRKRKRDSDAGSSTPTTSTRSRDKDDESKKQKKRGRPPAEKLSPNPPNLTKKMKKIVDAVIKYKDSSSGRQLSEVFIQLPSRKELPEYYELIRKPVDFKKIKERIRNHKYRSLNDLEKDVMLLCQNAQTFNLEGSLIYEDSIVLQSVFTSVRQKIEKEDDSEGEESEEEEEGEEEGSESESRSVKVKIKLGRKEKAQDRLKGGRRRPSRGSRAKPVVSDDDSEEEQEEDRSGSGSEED
T2 sequence (P51531 whole entry, the tested form may be a part): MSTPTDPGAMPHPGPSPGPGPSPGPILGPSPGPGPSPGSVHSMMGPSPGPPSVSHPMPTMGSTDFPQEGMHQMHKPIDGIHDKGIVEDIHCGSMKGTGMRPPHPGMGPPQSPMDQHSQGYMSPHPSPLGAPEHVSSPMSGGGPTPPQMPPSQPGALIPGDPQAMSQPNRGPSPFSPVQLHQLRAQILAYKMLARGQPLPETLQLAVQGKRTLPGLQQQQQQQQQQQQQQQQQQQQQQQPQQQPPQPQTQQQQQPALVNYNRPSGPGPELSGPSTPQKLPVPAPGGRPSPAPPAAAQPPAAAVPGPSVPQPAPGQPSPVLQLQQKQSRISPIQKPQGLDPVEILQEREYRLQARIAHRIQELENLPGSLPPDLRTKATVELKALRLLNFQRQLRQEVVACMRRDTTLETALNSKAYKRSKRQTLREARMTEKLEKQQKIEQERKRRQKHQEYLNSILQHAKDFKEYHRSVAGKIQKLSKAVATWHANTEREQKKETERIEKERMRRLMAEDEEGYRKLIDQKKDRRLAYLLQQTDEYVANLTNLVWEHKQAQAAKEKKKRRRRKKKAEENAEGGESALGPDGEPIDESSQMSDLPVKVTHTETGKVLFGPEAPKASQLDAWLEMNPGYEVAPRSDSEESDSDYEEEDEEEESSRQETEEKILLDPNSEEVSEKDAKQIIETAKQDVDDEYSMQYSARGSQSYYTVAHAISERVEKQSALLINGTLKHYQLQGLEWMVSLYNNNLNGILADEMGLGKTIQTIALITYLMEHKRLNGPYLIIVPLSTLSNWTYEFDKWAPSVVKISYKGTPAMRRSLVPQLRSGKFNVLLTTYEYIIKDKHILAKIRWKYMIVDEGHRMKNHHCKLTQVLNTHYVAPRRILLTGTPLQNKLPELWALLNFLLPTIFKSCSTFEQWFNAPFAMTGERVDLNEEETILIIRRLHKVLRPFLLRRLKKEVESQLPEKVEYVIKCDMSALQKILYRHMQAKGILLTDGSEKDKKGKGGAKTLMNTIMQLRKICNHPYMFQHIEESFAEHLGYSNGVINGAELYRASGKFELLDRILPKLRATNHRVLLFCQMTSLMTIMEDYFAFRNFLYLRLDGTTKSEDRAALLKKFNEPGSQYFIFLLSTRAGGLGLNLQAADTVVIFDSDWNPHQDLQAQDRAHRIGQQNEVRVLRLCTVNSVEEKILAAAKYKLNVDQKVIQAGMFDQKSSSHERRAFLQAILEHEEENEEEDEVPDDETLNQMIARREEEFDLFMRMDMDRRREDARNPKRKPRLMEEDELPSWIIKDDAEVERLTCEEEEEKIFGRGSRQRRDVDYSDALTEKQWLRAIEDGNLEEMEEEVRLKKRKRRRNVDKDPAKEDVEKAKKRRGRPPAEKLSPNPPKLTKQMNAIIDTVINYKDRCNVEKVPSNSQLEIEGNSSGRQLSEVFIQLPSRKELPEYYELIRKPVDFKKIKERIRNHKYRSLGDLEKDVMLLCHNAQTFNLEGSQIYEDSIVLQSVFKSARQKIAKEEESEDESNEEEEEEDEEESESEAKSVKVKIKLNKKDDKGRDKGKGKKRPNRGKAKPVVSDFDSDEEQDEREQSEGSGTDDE

Row | SMILES | DC50 [1] [nM] | inhibition at 1 µM ([1]; @ 1 μM) [%] | DC50 [2] [nM] | SMARCA2 % Degradation @ 1 μM ([2]; @ 1 μM) | inhibition at 1 µM ([1]; 1 μM) [%] | SMARCA2 % Degradation @ 1 μM ([2]; 1 μM)
1 | Nc1nnc(-c2ccccc2O)cc1N1C[C@@H]2C[C@H]1CN2c1ccnc(C#CCNC(=O)c2cc3ncccn3n2)n1 [Compound P-30, N-(3-(4-((1S,4S)-5-(3-amino-6-(2-hydroxyphenyl)pyridazin-4-yl)-2,5-diazabicyclo[2.2.1]heptan-2-yl)pyrimidin-2-yl)prop-2-yn-1-yl)pyrazolo[1,5-a]pyrimidine-2-carboxamide] | 500 to 5000 | 30 to 70 | 500 to 5000 | ++ (++=30-70%) |  | 
2 | Cn1cnc(C(=O)NCC#Cc2nccc(N3CCN(c4cc(-c5ccccc5O)nnc4N)CC3)n2)c1 [Compound P-67, N-(3-(4-(4-(3-amino-6-(2-hydroxyphenyl)pyridazin-4-yl)piperazin-1-yl)pyrimidin-2-yl)prop-2-yn-1-yl)-1-methyl-1H-imidazole-4-carboxamide] | 50 to 500 | < 30 | 50 to 500 | + (+=<30%) |  | 
3 | CC(C#Cc1cc(N2CCN(c3cc(-c4ccccc4O)nnc3N)CC[C@H]2C)ccn1)N(C)C (stereo partly drawn) [Compound P-399, 0-{5-[(R)-4-{2-[3-(dimcthylamino)-1-butynyl]-4-pyridyl}-5-methyl-1,4-diazepan-1-y1]-6-amino-3-pyridazinyl}phenol] | < 50 |  | < 50 |  | 30 to 70 | ++ (++=30-70%)
4 | Nc1nnc(-c2ccccc2O)cc1N1CCC2(CCCN(c3ccnc(C#CCO)n3)C2)CC1 [Compound P-123, 2-(6-amino-5-(2-(2-(3-hydroxyprop-1-yn-1-yl)pyrimidin-4-yl)-2,9-diazaspiro[5.5]undecan-9-yl)pyridazin-3-yl)phenol] | < 50 | 30 to 70 | 50 to 500 | ++ (++=30-70%) |  | 
5 | Nc1nnc(-c2ccccc2O)cc1N1CCC2(CCCN(c3ccnc(C#CCNC(=O)c4cc5n(n4)CCC5)n3)C2)CC1 [Compound P-129, N-(3-(4-(9-(3-amino-6-(2-hydroxyphenyl)pyridazin-4-yl)-2,9-diazaspiro[5.5]undecan-2-yl)pyrimidin-2-yl)prop-2-yn-1-yl)-5,6-dihydro-4H-pyrrolo[1,2-b]pyrazole-2-carboxamide] | 50 to 500 | 30 to 70 | 50 to 500 | ++ (++=30-70%) |  | 
6 | CN(C)CC#Cc1cc(N2C3CCC2CN(c2cc(-c4ccccc4O)nnc2N)CC3)ccn1 (stereo not drawn) [Compound P-382, 0-[6-amino-5-(9-{2-[3-(dimethylamino)-1-propynyl]-4-pyridyl}-3,9-diazabicyclo[4.2.1]non-3-y1)-3-pyridazinyl]phenol] | < 50 |  | < 50 |  | > 70 | +++ (+++=>70%)

Next, values leading:

Row | DC50 [1] [nM] | inhibition at 1 µM ([1]; @ 1 μM) [%] | DC50 [2] [nM] | SMARCA2 % Degradation @ 1 μM ([2]; @ 1 μM) | inhibition at 1 µM ([1]; 1 μM) [%] | SMARCA2 % Degradation @ 1 μM ([2]; 1 μM) | SMILES
7 | < 50 | 30 to 70 | < 50 | ++ (++=30-70%) |  |  | C[C@@H]1CCN(c2cc(-c3ccccc3O)nnc2N)CCN1c1ccnc(C#CCN2CCCCC2)n1 [Compound P-335, 0-(5-{(R)-5-methyl-4-[2-(3-piperidino-1-propynyl)-4-pyrimidinyl]-1,4-diazepan-1-y1}-6-amino-3-pyridazinyl)phenol]
8 | 50 to 500 | 30 to 70 | 50 to 500 | +++ (+++=>70%) |  |  | Cc1cnc(C#CCn2ccnc2)nc1N1CCN(c2cc(-c3ccccc3O)nnc2N)CC[C@H]1C [Compound P-227, o-{5-[(R)-4-{2-[3-(1-imidazolyl)-1-propynyl]-5-methyl-4-pyrimidinyl}-5-methyl-1,4-diazepan-1-yl]-6-amino-3-pyridaziny1} phenol]
9 | 50 to 500 |  | 50 to 500 |  | > 70 | +++ (+++=>70%) | C[C@@H]1CCN(c2cc(-c3ccccc3O)nnc2N)CCN1c1ccnc(C#CCN2CC3CC2C3)c1 [Compound P-392, 0-{5-[(R)-4-(2-{3-(2-azabicyclo[2.1.1]hex-2-yl)-1-propynyl}-4-pyridyl)-5-methyl-1,4-diazepan-1-yl]-6-amino-3-pyridazinyl}phenol]
